Where two headings read alike, the source gives them in different places.
Experiments:
[1] = log P by HPLC on reversed-phase column (C18), EEC Directive 79/831 Annex V.A8; assay type: physicochemical
Method: The log P values were determined according to EEC Directive 79/831 Annex V.A8 by HPLC (high-performance liquid chromatography) on a reversed-phase column (C18). Temperature 43° C. The calibration is effected with unbranched alkan-2-ones (having 3 to 16 carbon atoms), for which the log P values are known. Here, the terms acidic and neutral are defined analogously to the definitions below for the determination of M^+. The determination of the M^+ by LC-MS in the acidic range was carried out at pH 2.7 using the mobile phases 0.1% aqueous formic acid and acetonitrile (contains 0.1% formic acid); linear gradient from 10% acetonitrile to 95% acetonitrile, instrument: Agilent 1100 LC system, Agilent MSD system, HTS PAL. The determination of the M^+ by LC-MS in the neutral range was carried out at pH 7.8 using the mobile phases 0.001 molar aqueous ammonium bicarbonate solution and acetonitrile; linear gradient from 10% acetonitrile to 95% acetonitrile.

Myzus persicae [2] = assay: Myzus persicae oral test; assay type: in vivo; conditions: 120 h, after 5 days, read-out: efficacy
Method: Myzus persicae—Oral Test [table] To produce a suitable active compound preparation, 1 part by weight of active compound is dissolved with the stated parts by weight of solvent and made up to the desired concentration with water. 50 μl of the active compound preparation are transferred into microtitre plates and made up to a final volume of 200 μl with 150 μl of IPL41 insect medium (33%+15% sugar). Subsequently, the plates are sealed with parafilm, which a mixed population of green peach aphids (Myzus persicae) within a second microtitre plate is able to puncture and imbibe the solution through it. After 5 days, the efficacy in % is determined. 100% means that all the aphids have been killed; 0% means that no aphids have been killed.

Meloidogyne incognita = Meloidogyne incognita test (sand, lettuce, gall formation); assay type: in vivo; conditions: Meloidogyne incognita, 336 h, 20 ppm, after 14 days; read-out: nematicidal efficacy (formation of galls)
How it was run: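 Gall counts on lettuce roots were scored after 14 days in sand inoculated with root-knot nematode eggs/larvae plus compound diluted in water. Values run from 0% (galls as in untreated plants) to 100% (gall-free).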

Tetranychus urticae = Tetranychus urticae spray test, OP-resistant; assay type: in vivo; conditions: foliar, 144 h, bean leaf discs, after 6 days, read-out: efficacy
Method: Tetranychus urticae—Spray Test, OP-Resistant
To produce a suitable active compound preparation, 1 part by weight of active compound is dissolved with the specified parts by weight of solvent and made up to the desired concentration with water containing an emulsifier concentration of 1000 ppm. To produce further test concentrations, the formulation is diluted with emulsifier-containing water.
Discs of bean leaves (Phaseolus vulgaris) infested with all stages of the greenhouse red spider mite (Tetranychus urticae) are sprayed with an active compound preparation of the desired concentration.
After 6 days, the efficacy in % is determined. 100% means that all the spider mites have been killed; 0% means that no spider mites have been killed.

Myzus persicae [3] = assay: Myzus persicae spray test (Chinese cabbage leaf discs); assay type: in vivo; conditions: foliar, 144 h, 500 g/ha, after 6 days, read-out: efficacy
Method: Myzus persicae—Spray Test [table] To produce a suitable active compound preparation, 1 part by weight of active compound is dissolved with the specified parts by weight of solvent and made up to the desired concentration with water containing an emulsifier concentration of 1000 ppm. To produce further test concentrations, the formulation is diluted with emulsifier-containing water. Discs of Chinese cabbage leaves (Brassica pekinensis) infested by all stages of the green peach aphid (Myzus persicae) are sprayed with an active compound preparation of the desired concentration. After 6 days, the efficacy in % is determined. 100% means that all the aphids have been killed; 0% means that no aphids have been killed.

[4] = reversed-phase C18 HPLC column, neutral range, pH 7.8, aqueous ammonium bicarbonate/acetonitrile, 43° C., read-out: log P (neutral)

| Structure (SMILES) | pest or weed control at 20 ppm (Myzus persicae [2]) | pest or weed control at 20 ppm (Meloidogyne incognita) | pest or weed control at 500 g/ha (Tetranychus urticae) | also measured |
| --- | --- | --- | --- | --- |
| O=C(O)c1cn(Cc2c(F)cccc2F)cn1 [1-(2,6-difluorobenzyl)-1H-imidazole-4-carboxylic acid] | – | – | – | chromatographic logP ([1]; pH 2.7): 0.42 |
| Cc1nc(C(=O)O)cn1-c1ccccc1Cl [1-(2-chlorophenyl)-2-methyl-1H-imidazole-4-carboxylic acid] | – | – | – | chromatographic logP ([1]; reversed-phase C18 HPLC column, pH 2.7, HCOOH (formic acid mobile phase), 43° C., read-out: log P (HCOOH)): 0.67; chromatographic logP [1, 4]: -0.01 |
| Cc1nc(C(=O)NS(=O)(=O)c2ccccc2Cl)cn1-c1ccccc1Cl [1-(2-chlorophenyl)-N-[(2-chlorophenyl)sulfonyl]-2-methyl-1H-imidazole-4-carboxamide] | – | – | – | chromatographic logP [1, 4]: 0.85 |
| Cc1nc(C(=O)NS(=O)(=O)c2ccccc2Cl)cn1-c1c(F)cccc1F [I-004] | 70% | 90% | – | – |
| N#Cc1c(C(=O)NS(=O)(=O)c2ccccc2Cl)ncn1CCC(F)(F)F [I-007] | 70% | 70% | – | – |
| O=C(NS(=O)(=O)Cc1ccccc1)c1ncn(CCC(F)(F)F)c1Cl [I-028] | – | 100% | 90% | – |
| CC(CC(F)(F)F)n1cnc(C(=O)NS(=O)(=O)c2ccc(Cl)cc2)c1Cl (centres unmarked) [I-073] | – | 100% | 90% | – |
| Cc1cccc(CS(=O)(=O)NC(=O)c2ncn(CCC(F)(F)F)c2Cl)c1 [I-083] | – | 90% | 90% | – |
| O=C(NS(=O)(=O)Cc1ccccc1Cl)c1ncn(CCC(F)(F)F)c1Cl [I-085] | – | 90% | 70% | pest or weed control at 500 g/ha (Myzus persicae [3]): 70% |
| COc1ccc(Cl)c(S(=O)(=O)NC(=O)c2nc(C)n(-c3cc(Cl)cc(Cl)c3)c2Cl)c1 [I-106] | – | 100% | – | pest or weed control at 4 ppm (Myzus persicae [2]; 4 ppm): 100% |
| Cn1cc(C(=O)NS(=O)(=O)c2ccccc2Cl)nc1Cc1ccccc1Cl [I-116] | 90% | 90% | – | pest or weed control at 500 g/ha (Myzus persicae [3]): 70% |
| Cn1cc(C(=O)NS(=O)(=O)c2ccccc2Cl)nc1Cc1ccc(Cl)cc1 [I-121] | – | 70% | 90% | – |
| CC(C)S(=O)(=O)NC(=O)c1cn(C)c(Cc2ccc(Cl)cc2)n1 [I-122] | – | 90% | 100% | pest or weed control at 500 g/ha (Myzus persicae [3]): 90% |
| Cn1nc(C(=O)NS(C)(=O)=O)cc1-c1cc(Cl)ccn1 [I-127] | 70% | 70% | – | pest or weed control at 500 g/ha (Myzus persicae [3]): 90% |
| O=C(NS(=O)(=O)c1ccc(Cl)cc1)c1cn(Cc2cccc(Cl)c2)cn1 [I-160] | – | 70% | 70% | – |
| Cc1nc(C(=O)NS(=O)(=O)c2ccccc2Cl)cn1Cc1ccc(Cl)cc1 [I-170] | 90% | 100% | 90% | – |
| Cc1nc(C(=O)NS(=O)(=O)c2ccccc2)cn1Cc1ccccc1Cl [I-171] | – | 100% | 90% | pest or weed control at 500 g/ha (Myzus persicae [3]): 70% |
| O=C(NS(=O)(=O)c1ccccc1)c1cn(-c2cccc(Cl)c2)cn1 [I-172] | – | 100% | 100% | – |
| O=C(NS(=O)(=O)c1ccccc1)c1cn(-c2cccc(C(F)(F)F)c2)cn1 [I-173] | – | 100% | 90% | – |

| Structure (SMILES) | pest or weed control at 20 ppm (Myzus persicae [2]) | pest or weed control at 20 ppm (Meloidogyne incognita) | pest or weed control at 500 g/ha (Tetranychus urticae) | also measured |
| --- | --- | --- | --- | --- |
| O=C(NS(=O)(=O)c1ccccc1Cl)c1cn(-c2ccc(C(F)(F)F)cc2Cl)cn1 [I-197] | – | 100% | 70% | – |
| COc1ccc(Cl)c(S(=O)(=O)NC(=O)c2cn(-c3cc(F)cc(C(F)(F)F)c3)cn2)c1 [I-250] | – | 100% | – | pest or weed control at 100 ppm (Myzus persicae [2]): 100% |
| Cc1nc(C(=O)NS(=O)(=O)c2c(Cl)cccc2Cl)cn1-c1ccccc1 [I-253] | – | 100% | – | pest or weed control at 500 g/ha (Myzus persicae [3]): 90%; pest or weed control at 100 ppm (Myzus persicae [2]): 100% |
| Cc1ccc(S(=O)(=O)NC(=O)c2cn(-c3ccccc3)c(C)n2)cc1 [I-254] | – | 100% | – | pest or weed control at 500 g/ha (Myzus persicae [3]): 90%; pest or weed control at 100 ppm (Myzus persicae [2]): 100% |
| Cc1nc(C(=O)NS(=O)(=O)c2ccccc2)cn1-c1ccccc1F [I-255] | – | 100% | 70% | – |
| Cc1nc(C(=O)NS(=O)(=O)c2ccccc2Cl)cn1-c1cccc(Cl)c1Cl [I-264] | – | 90% | – | pest or weed control at 500 g/ha (Myzus persicae [3]): 70%; pest or weed control at 100 ppm (Myzus persicae [2]): 100% |
| COc1ccc(Cl)c(S(=O)(=O)NC(=O)c2cn(-c3ccccc3Cl)c(C)n2)c1 [I-266] | 90% | 100% | – | – |
| Cc1nc(C(=O)NS(=O)(=O)c2ccccc2Cl)cn1-c1ccccc1Cl [I-269] | 70% | 90% | – | pest or weed control at 500 g/ha (Myzus persicae [3]): 70% |
| O=C(NS(=O)(=O)c1c(Cl)cccc1Cl)c1cn(-c2cc(Cl)cc(C(F)(F)F)c2)cn1 [I-286] | 90% | 100% | – | – |
| Cc1cc(-n2cnc(C(=O)NS(=O)(=O)c3c(Cl)cccc3Cl)c2)cc(C(F)(F)F)c1 [I-291] | 90% | 90% | – | – |
| Cc1nc(C(=O)NS(=O)(=O)c2c(Cl)cccc2Cl)cn1-c1cc(Cl)cc(Cl)c1 [I-317] | 90% | 100% | – | pest or weed control at 500 g/ha (Myzus persicae [3]): 90% |
| Cc1nc(C(=O)NS(=O)(=O)c2cc(Cl)ccc2Cl)cn1-c1cc(F)cc(Cl)c1 [I-330] | – | 100% | 70% | – |
| COc1ccc(Cl)c(S(=O)(=O)NC(=O)c2cn(C)c(Cc3ccccc3)n2)c1 [I-373] | – | 70% | 90% | – |
| CCSc1cccc(Cl)c1S(=O)(=O)NC(=O)c1cn(-c2cc(Cl)cc(Cl)c2)cn1 [I-391] | – | 100% | 70% | – |
| CC(C)Nc1cccc(F)c1S(=O)(=O)NC(=O)c1cn(-c2cc(Cl)cc(Cl)c2)cn1 [I-392] | 100% | 100% | – | pest or weed control at 500 g/ha (Myzus persicae [3]): 90% |
| CC(C)Oc1ccc(Cl)c(S(=O)(=O)NC(=O)c2nc(Cl)n(C3CC3C(F)(F)F)c2Cl)c1 (centres unmarked) [I-460] | 70% | 100% | – | – |
| COc1ccc(Cl)c(S(=O)(=O)NC(=O)c2ncn(-c3ccc(Cl)cc3)c2C(C)C)c1 [I-483] | – | 70% | 80% | – |
| CC(C)S(=O)(=O)NC(=O)c1nc(Cl)n(CCC(F)(F)F)c1Cl [I-492] | – | – | 90% | – |

Reference: patent publication US10820591B2, “Substituted sulfonyl amides for controlling animal pests” (Bayer Aktiengesellschaft, priority 2016, dated 2020)
